# Inconclusive results are not listed. Active and inactive are the calls of the source.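 The calls were made as follows: active = inhibition of 30% or more at any tested concentration; inactive = the rest, inconclusive results apart.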
# Target: M1-family alanyl aminopeptidase (Plasmodium falciparum 3D7)
# Assay: malaria M1 alanyl aminopeptidase inhibitors – biochemical, QFRET, H-Leu-NHMec substrate, selectivity assay for PfM17LAP inhibitor project, dose response (AID 588698)
# Details: recombinant PfM1AAP, H-Leu-NHMec fluorogenic substrate cleavage
row,IC50,Structure (SMILES)
1,79.4 µM,O=C(Cc1cccc2ccccc12)NO
2,33.7 µM,O=C(Cc1ccc2ccccc2c1)NO

# Same assay, conditions: recombinant PfM1AAP, H-Leu-NHMec fluorogenic substrate cleavage; at 100 µM (top of the series)
row,inhibition,Structure (SMILES)
1,inactive,COC(=O)c1ccccc1NC(=O)c1cc2cc3ccc(C)cc3nc2s1
2,inactive,COC(=O)c1c(NC(=O)C2CCCCC2C(=O)O)sc2c1CCC(c1ccccc1)C2 (stereo not drawn)
3,inactive,CC1=C(C)CC(C(=O)Nc2nc(-c3cc(C)ccc3C)c(C)s2)C(C(=O)O)C1 (stereo not drawn)
4,inactive,CCC(C)(C)C1CCc2c(sc(NC(=O)C3CC(C)=C(C)CC3C(=O)O)c2C(=O)OC)C1 (stereo not drawn)
5,inactive,O=C(O)c1ccccc1C(=O)Nc1nc2c(s1)CCCC2
6,inactive,COC(=O)c1c(NC(=O)C2CC=CCC2C(=O)O)sc(C)c1-c1ccc(C)cc1 (stereo not drawn)
7,inactive,CC1=C(C)CC(C(=O)Nc2ccc(Oc3ccc(Cl)cc3)cc2)C(C(=O)O)C1 (stereo not drawn)
8,inactive,COc1ccc(-c2nnc(NC(=O)C3CC(C)=C(C)CC3C(=O)O)s2)cc1 (stereo not drawn)
9,inactive,COC(=O)c1cc(OC)c(OC)cc1NC(=O)c1sc2nc(C)ccc2c1N

# Second part, the compound before the results:
row,Structure (SMILES),inhibition
1,COC(=O)c1ccccc1NC(=O)c1ccc2c(Cl)c3c(nc2c1)CCC3,inactive
2,O=C(Nc1ccc(Cl)cc1)Nc1ccccc1C(=O)O,inactive
3,Cc1cc(=O)[nH]c(SCC(=O)Nc2ccccc2)n1,inactive
4,COc1ccc(OCCC(=O)NO)cc1,inactive
5,NC(N)=NCCC[C@H](N)C(=O)NO,inactive
6,CC1CCc2sc(C(=O)Nc3cccc4c3C(=O)NC4)cc2C1 (stereo not drawn),inactive
7,O=C(CSc1nc(O)cc(=O)[nH]1)Nc1ccccc1,inactive
8,O=C(CSc1nccc(=O)[nH]1)Nc1ccc(N2CCOCC2)cc1,inactive
9,Cc1cc(SCC(=O)Nc2ccccc2C(=O)O)nc2ccccc12,inactive
10,CC(C)C[C@H](N)C(=O)NO,inactive
11,COc1cc(NC(=O)c2ccc(-c3ccccc3)cc2)c(C(=O)O)cc1OC,inactive
12,CCn1c2ccccc2c2cc(NC(=O)CSc3nc(C)cc(=O)[nH]3)ccc21,inactive
13,O=C(CSc1nccc(=O)[nH]1)Nc1ccc(Oc2ccccc2)cc1,inactive
14,COC(=O)c1c(NC(=O)c2ccccc2C(=O)O)sc2c1CCCC2,inactive
15,O=C1OCCC1Sc1nnc(NC2CCCCC2)s1 (stereo not drawn),inactive
16,Cc1ccc(NC(=O)CSc2nc(O)cc(=O)n2Cc2ccccc2)cc1,inactive
17,COc1cc(NC(=O)CSc2ccccc2)c(C(=O)O)cc1OC,inactive

# — PubChem BioAssay AID588698 (Southern Research Specialized Biocontainment Screening …, 2011)
